Test results: ChEMBL document CHEMBL1201862, “PubChem BioAssay data set” (2004)
Active and inactive are the calls of the source.

What was measured:
[1] = cytotoxicity in HPDE-C7 cells, cell-based, fluorescence, HTS (AID 430); type: functional; details: Homo sapiens
[2] = cytotoxicity in KRAS-transformed pancreatic duct cells, primary screen, cell-based, fluorescence, HTS (AID 431); type: functional; details: Homo sapiens;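 also: cell line used: HPDE-C7K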
[3] = biological target: Protein disulfide-isomerase (Homo sapiens, UniProt P07237); experiment: PDI inhibitors, insulin aggregation turbidity, dose response, biochemical, absorbance, cherry-picked samples (AID 602350); type: functional
Protein disulfide-isomerase, sequence (P07237 whole entry): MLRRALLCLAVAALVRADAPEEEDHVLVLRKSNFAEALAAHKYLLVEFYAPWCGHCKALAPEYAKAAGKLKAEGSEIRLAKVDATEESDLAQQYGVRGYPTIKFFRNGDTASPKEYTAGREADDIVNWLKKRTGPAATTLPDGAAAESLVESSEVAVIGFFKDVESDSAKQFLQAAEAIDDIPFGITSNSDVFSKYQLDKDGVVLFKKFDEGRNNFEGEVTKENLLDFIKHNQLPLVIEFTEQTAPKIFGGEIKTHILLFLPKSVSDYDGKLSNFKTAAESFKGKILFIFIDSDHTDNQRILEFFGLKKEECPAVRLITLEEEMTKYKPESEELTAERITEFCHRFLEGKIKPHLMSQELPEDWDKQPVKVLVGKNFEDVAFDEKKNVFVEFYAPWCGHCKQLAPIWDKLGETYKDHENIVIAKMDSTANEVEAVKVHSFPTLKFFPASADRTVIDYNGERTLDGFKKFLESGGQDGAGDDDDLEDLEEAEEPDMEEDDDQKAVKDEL

Paired box protein Pax-8 = Paired box protein Pax-8 (Homo sapiens, UniProt Q06710); experiment: inhibitors of PAX8-driven TPO luciferase reporter, dose response, RMG-I cells, cherry-pick (AID 687027); type: functional, cell-based;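 also: luciferase reporter driven by Pax8 target thyroperoxidase promoter measured by SteadyGlo luminescence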
Paired box protein Pax-8, sequence (Q06710 whole entry, the tested form may be a part): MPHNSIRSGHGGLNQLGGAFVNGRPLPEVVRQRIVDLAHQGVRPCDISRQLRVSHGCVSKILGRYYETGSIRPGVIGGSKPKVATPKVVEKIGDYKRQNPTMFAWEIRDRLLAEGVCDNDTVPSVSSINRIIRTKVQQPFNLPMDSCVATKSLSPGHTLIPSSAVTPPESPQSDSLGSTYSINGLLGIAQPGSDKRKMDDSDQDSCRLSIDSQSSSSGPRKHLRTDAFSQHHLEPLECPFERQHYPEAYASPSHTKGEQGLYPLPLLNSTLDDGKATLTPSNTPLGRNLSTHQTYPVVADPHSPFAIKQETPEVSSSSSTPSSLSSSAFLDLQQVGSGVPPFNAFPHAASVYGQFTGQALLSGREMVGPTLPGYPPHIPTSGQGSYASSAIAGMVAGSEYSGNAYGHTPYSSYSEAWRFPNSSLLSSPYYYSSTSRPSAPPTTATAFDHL

[4] = CAL PDZ domain peptide-binding inhibitors, dose response, biochemical, fluorescence polarization, untagged CAL PDZ, cherry-pick, set 2 (AID 602254); type: functional
[5] = inhibitors of PGC1a acetylation in cells, dose response, cell-based, cherry-picked samples (AID 720514); type: functional;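 also: potency may reflect raised or lowered acetylation signal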
cells = type: functional
[6] = Vero cell cytotoxicity, cytotoxicity control for M. tuberculosis inhibitor project, purified and synthesized samples, set 3 (AID 504684); type: functional
[7] = biological target: Ras and Rab interactor 1/Tyrosine-protein kinase ABL1 (Homo sapiens, UniProt P00519+Q13671); type: functional;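 also: biochemical TR-FRET dose-response test measuring inhibition of binding between Rin1 and Abl proteins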
Ras and Rab interactor 1/Tyrosine-protein kinase ABL1, sequence (P00519 whole entry): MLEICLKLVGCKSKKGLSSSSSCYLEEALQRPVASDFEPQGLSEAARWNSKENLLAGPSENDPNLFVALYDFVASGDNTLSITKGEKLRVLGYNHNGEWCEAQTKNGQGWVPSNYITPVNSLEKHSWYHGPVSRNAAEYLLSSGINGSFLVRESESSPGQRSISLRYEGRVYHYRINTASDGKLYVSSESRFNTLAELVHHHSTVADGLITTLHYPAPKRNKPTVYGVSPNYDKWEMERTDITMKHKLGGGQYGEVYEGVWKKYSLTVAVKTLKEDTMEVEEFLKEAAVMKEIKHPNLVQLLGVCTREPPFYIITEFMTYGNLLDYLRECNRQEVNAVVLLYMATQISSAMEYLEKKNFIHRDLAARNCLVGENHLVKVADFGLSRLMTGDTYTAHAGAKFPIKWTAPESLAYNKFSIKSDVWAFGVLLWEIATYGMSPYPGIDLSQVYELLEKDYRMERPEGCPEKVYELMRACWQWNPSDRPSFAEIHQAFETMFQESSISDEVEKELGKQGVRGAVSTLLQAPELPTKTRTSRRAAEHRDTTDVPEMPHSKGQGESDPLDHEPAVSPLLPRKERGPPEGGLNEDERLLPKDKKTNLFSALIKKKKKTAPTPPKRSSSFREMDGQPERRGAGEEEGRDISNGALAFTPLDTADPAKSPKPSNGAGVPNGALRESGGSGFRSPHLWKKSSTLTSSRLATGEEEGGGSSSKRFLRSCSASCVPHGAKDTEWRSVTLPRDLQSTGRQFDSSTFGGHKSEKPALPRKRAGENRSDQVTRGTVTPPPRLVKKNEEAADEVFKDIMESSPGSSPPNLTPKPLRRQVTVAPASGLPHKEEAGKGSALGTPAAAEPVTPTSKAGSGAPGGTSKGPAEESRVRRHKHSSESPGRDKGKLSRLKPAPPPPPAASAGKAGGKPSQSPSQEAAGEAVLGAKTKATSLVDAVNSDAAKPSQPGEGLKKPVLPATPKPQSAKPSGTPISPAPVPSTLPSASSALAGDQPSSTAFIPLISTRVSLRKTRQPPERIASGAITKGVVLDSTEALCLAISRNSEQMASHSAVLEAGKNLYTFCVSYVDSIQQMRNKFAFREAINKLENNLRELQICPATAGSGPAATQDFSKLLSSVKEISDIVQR
Ras and Rab interactor 1/Tyrosine-protein kinase ABL1, sequence (Q13671 whole entry): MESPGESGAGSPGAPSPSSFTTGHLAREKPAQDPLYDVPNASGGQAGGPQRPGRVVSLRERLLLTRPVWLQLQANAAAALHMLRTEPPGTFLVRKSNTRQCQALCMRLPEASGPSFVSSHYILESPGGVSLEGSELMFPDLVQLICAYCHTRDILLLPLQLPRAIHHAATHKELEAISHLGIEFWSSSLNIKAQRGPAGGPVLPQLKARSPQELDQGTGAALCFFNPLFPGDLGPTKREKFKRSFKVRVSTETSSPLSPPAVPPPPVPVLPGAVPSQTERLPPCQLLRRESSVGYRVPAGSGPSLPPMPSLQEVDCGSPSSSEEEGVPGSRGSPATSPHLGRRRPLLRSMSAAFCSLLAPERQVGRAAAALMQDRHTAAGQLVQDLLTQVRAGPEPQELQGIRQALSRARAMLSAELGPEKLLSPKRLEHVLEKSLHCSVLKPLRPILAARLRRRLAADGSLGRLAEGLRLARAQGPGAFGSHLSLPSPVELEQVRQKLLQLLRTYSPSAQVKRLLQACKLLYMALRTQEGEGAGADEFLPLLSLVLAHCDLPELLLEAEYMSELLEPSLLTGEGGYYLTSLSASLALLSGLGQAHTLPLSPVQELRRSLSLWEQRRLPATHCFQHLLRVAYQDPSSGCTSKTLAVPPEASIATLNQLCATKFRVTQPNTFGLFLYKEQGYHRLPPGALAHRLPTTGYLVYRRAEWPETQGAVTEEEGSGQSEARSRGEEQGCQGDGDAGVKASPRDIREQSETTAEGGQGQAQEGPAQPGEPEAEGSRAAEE

BJ [8] = experiment: cytotoxicity toward BJ-TERT fibroblasts, dose response, cell-based, RAS-independent, luminescence (AID 1933); type: functional; details: Homo sapiens
BJ [9] = experiment: cells; type: functional, cell-based; details: Homo sapiens
BJ [10] = experiment: cytotoxicity toward BJ-TERT-LT-ST fibroblasts, dose response, cell-based, RAS-independent, luminescence (AID 1935); type: functional; details: Homo sapiens;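 also: BJ fibroblasts immortalized with TERT plus LT and ST oncogenes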
[11] = cytotoxicity toward DRD oncogenic fibroblasts, dose response, cell-based, non-viral oncogenic, luminescence (AID 1934); type: functional; details: Homo sapiens
CHO = experiment: cytotoxicity in TLR9-MyD88 CHO cells, dose response, cytotoxicity control for TLR9-MyD88 binding inhibitor project, cell-based, luminescence (AID 588339); type: functional, hamster; details: Cricetulus griseus;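 also: CHO cells stably coexpressing TLR9 and MyD88 fusions from primary screen; compound exposure lasted 48 hours before viability readout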
Beta Lactamase = Beta Lactamase (Pseudomonas aeruginosa, UniProt Q932Y6); experiment: beta-lactamase reporter inhibitor potency, dose response, artefact control for TLR9-MyD88 binding inhibitor project, BLA reporter cells, FRET fluorescence (AID 588341); type: cell-based;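 also: cell based assay in CHO-K1 cells stably expressing beta-lactamase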
Beta Lactamase, sequence (Q932Y6 whole entry): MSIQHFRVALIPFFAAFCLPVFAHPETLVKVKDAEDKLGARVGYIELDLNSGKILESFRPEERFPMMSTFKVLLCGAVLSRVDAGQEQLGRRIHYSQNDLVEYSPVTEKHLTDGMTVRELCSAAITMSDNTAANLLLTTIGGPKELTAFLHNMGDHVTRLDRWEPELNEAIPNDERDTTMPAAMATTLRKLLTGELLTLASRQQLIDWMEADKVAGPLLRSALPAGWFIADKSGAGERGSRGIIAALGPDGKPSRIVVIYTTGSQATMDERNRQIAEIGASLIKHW

Compound: Cc1ccc(S(=O)(=O)CCC(=O)c2ccc(O)cc2O)cc1
- EC50 [1]: 9.12 µM (active)
- EC50 [2]: 8.8 µM (active)
- AC50 [3]: 15.6 µM (active)
- AC50 (Paired box protein Pax-8): 4.59 µM (active)

Compound: COc1ccccc1N(CCOc1ccccc1)S(=O)(=O)c1ccccc1
- AC50 [4]: 77.2 µM (active)

Compound: Cn1cnnc1Sc1ccc(/C=C/C(=O)c2ccc(O)cc2)cc1[N+](=O)[O-]
- AC50 [3]: 0.422 µM (active)
- AC50 [5]: 8.44 µM (active)

Compound: COC(=O)CCc1nc2c(C#N)c(-c3ccc(Cl)cc3)ccn2n1
- IC50 (cells): 5.43 µM (active)
- CC50 [6]: > 100 µM (active)

Compound: COc1cc(C(=O)OCC(=O)Nc2ccc(S(=O)(=O)N3CCCC3)cc2)cc(OC)c1OC
- IC50 [7]: 12.4 µM (inactive)

Compound: Cc1ccc(Cl)c(NC(=O)COC(=O)c2ccccc2C(=O)c2ccc(Cl)c([N+](=O)[O-])c2)c1Cl
- EC50 (BJ [8]): 2.71 µM (active)
- EC50 (BJ [9]): 16.8 µM (inconclusive)
- EC50 (BJ [10]): 3.87 µM (inconclusive)
- EC50 [11]: 7.58 µM (active)
- IC50 (CHO): 12.6 µM (inactive)
- IC50 (Beta Lactamase): > 49.8 µM (inactive)
